Entries after “also recorded” stand apart in the source; their conditions may differ.
B1: recombinant GDF6 protein: recombinant GDF6 protein added to culture media (protein, UniProt Q6KF10 336-455, looked up)
Growth/differentiation factor …: TAFASRHGKRHGKKSRLRCSKKPLHVNFKELGWDDWIIAPLEYEAYHCEGVCDFPLRSHLEPTNHAIIQTLMNSMDPGSTPPSCCVPTKLTPISILYIDAGNNVVYKQYEDMVVESCGCR

Tests used:
A375 melanoma cells [1] = assay: Clonogenic growth (colony formation) assay; assay type: cell-based, human; settings: for colonies in clonogenic growth assay after shRNA treatment: A375 cells, crystal violet staining; for colonies in clonogenic growth assay after shRNA treatment / colonies in clonogenic growth assay, empty vector-transfected cells: vs shGFP; for colonies in clonogenic growth assay, cells expressing SMAD1 phosphomimic (SMAD1DVD): SMAD1DVD cells treated with shRNA; for colonies in clonogenic growth assay, empty vector-transfected cells: empty vector cells treated with shRNA
Method: For growth curves 50,000 live cells were seeded per well in a 6-well tissue culture plate on day 0. The numbers of live cells were calculated every day using an automated cell counter (Nexcelom Bioscience Cellometer Auto T4) following standard procedures. All assays were performed with technical replicates. For clonogenic assays, 3,000 live cells were seeded in a 10 cm tissue culture plate. […] ImageJ was used to quantify the number of colonies. In assays with DMH1 treatment, control or DMH1-containing media was replaced every other day. For soft agar assays a 0.5% bottom layer (1:1 with 1% agar and 2X DMEM with 20% FBS) and a 0.3% top layer (1:1 with 0.6% agar and 2× DMEM with 20% FBS) were used. 3,000 live cells per well of a 6-well tissue culture plate were added in the top layer. Media was added initially then replaced every 3 days. After 3 weeks, colonies were stained with nitroblue tetrazolium chloride overnight at 37° C. Once stained, individual wells were photographed, and ImageJ was used to count the number of colonies. All these assays were done in triplicate, and experiments were repeated at least twice. A representative image of each has been shown.

A375 melanoma cells [2] = assay: A375 melanoma xenograft in nude mice, tumor volume; assay type: in vivo, mouse; settings: for tumor formation (tumor volume) of shRNA-treated cells xenotransplanted into mice: A375 cells treated with shRNA before transplantation, vs shGFP/shEGFP; for xenograft tumor formation, SMAD1 phosphomimic cells: SMAD1DVD cells with GDF6 knocked down; for xenograft tumor formation, empty vector-transfected cells: empty vector cells with GDF6 knocked down
Method: An art-accepted model to test for an agent's effects on melanoma is that of using immunocompromised (“nude”) mice which are then injected subcutaneously with melanoma cells, and then concomitant with injection of the cells, sometime after injection, and/or after tumor establishment, the test agent is appropriately administered (e.g., intravenously, peritoneally, orally, etc.). Control and treated animals are monitored in part for tumor growth, tumor stabilization, and tumor regression (see for example, Yang et al. 2010. Cancer Res., 70:5518-5527 and Bollag et al. 2010. Nature. 467:596-599).
All animal protocols were approved by the UMMS Institution Animal Care and Use Committee (A-2016, A-2171). Mice were randomly allocated to individual experimental groups. No blinding was done as animal groups were identified by tagging and cage labeling. Animals were excluded, according to pre-established criteria, if the tumor volume reached >1,000 mm^3; if tumor size or location affected the mobility or general health of animal, the animal was euthanized and excluded from the experiment or the complete experiment was terminated. A375 cells stably expressing an EGFP or GDF6 or SMAD1 shRNA and/or empty vector or GDF6-expressing vector or SMAD1DVD-overexpressing vector were subcutaneously injected into the flanks of 6-8-week-old BALB/c nu/nu female mice (Taconic Farms) to produce orthotopic primary tumor. Primary tumor growth was monitored every 3 days with calipers, and the tumor volume was calculated as described previously (C. Gazin, N. Wajapeyee, S. Gobeil, C. M. Virbasius, M. R. Green, An elaborate pathway required for Ras-mediated epigenetic silencing. Nature 449, 1073-1077 (2007)). For GDF6 knockdown, SMAD1 knockdown and epistasis experiments, 1×10^7 live cells were injected. For GDF6 overexpression experiments, 1×10^6 live cells were injected. For GDF6 overexpression and GDF6 knockdowns, a representative of two independent experiments (n=3 animals per experiment) is shown. For DMH1 drug experiments, 1×10^6 live A375 cells were subcutaneously injected in the flanks of BALB/c nu/nu female mice. Beginning on the day cells were injected, mice were injected intraperitoneally with vehicle 12.5% 2-hydroxypropyl-β-cyclodextrin or 25 mg/kg DMH1 in vehicle every other day. The growth of the tumor was monitored as described above. This experiment was repeated twice and the weighted average of both experiments (n=8 total) is represented.

GDF6 = assay: Western blot of GDF6 protein after shRNA knockdown; assay type: cell-based, human; settings: melanoma cells, vs shGFP control
Method: Lentiviral infections were performed as described previously (C. J. Ceol et al., The histone methyltransferase SETDB 1 is recurrently amplified in melanoma and accelerates its onset. (Nature 471, 513-517 (2011)). For stable gene knockdowns, we used pLKO-1 lentiviral vectors to deliver short hairpin sequences (shRNAs) (obtained from the RNAi Consortium (TRC)/Broad Institute through the UMMS RNAi core facility) specific for GDF6 (GDF6.1: TRCN0000141818, target sequence: […] (SEQ ID NO:10); GDF6.2: TRCN0000140097, target sequence: […] (SEQ ID NO:11)) or SMAD1 (SMAD1.1: TRCN0000021781, target sequence: […] (SEQ ID NO:12); SMAD1.2: TRCN0000021782, target sequence: […] (SEQ ID NO:13)) or EGFP (TRCN0000072181, target sequence: […] (SEQ ID NO:14)). Virus was made using a second generation lentiviral packaging system in HEK293T cells and titrated using a p24 ELISA kit (Clontech). Cells were infected with virus at a multiplicity of infection of 2.5 with 8 μg/ml polybrene followed by puromycin selection (2 μm/ml) for 2 days in appropriate media. For overexpression, we used Gateway cloning (Life Technologies) to insert the GDF6 ORF (GE life sciences) or SMAD1DVD ORF (provided by Takenobu Katagiri) into the pLenti CMV Hygro DEST (w117-1) vector (provided by Paul Kaufman). […]

A375 melanoma cells [3] = assay: Apoptosis markers: Annexin5 staining and Caspase 3/7 cleavage; assay type: cell-based, human; settings: vs shGFP
Method: A375 melanoma cells after knockdown of GDF6 or SMAD1 or EGFP were stained for Annexin V and 7-AAD (BD Pharmingen PR Annexin V Apoptosis Detection kit) as per manufacturer's instructions, followed by flow cytometry using a FACSCalibur instrument (BD Biosciences). Caspase3/7 activity was measured using the Caspase-Glo 3/7 assay (Promega) as per manufacturer's instructions.

SMAD1 = assay: Western blot of SMAD1 protein after shRNA knockdown; assay type: cell-based, human; settings: melanoma cells, vs shGFP control
Method: Lentiviral infections were performed as described previously (C. J. Ceol et al., The histone methyltransferase SETDB 1 is recurrently amplified in melanoma and accelerates its onset. (Nature 471, 513-517 (2011)). For stable gene knockdowns, we used pLKO-1 lentiviral vectors to deliver short hairpin sequences (shRNAs) (obtained from the RNAi Consortium (TRC)/Broad Institute through the UMMS RNAi core facility) specific for GDF6 (GDF6.1: TRCN0000141818, target sequence: […] (SEQ ID NO:10); GDF6.2: TRCN0000140097, target sequence: […] (SEQ ID NO:11)) or SMAD1 (SMAD1.1: TRCN0000021781, target sequence: […] (SEQ ID NO:12); SMAD1.2: TRCN0000021782, target sequence: […] (SEQ ID NO:13)) or EGFP (TRCN0000072181, target sequence: […] (SEQ ID NO:14)). Virus was made using a second generation lentiviral packaging system in HEK293T cells and titrated using a p24 ELISA kit (Clontech). Cells were infected with virus at a multiplicity of infection of 2.5 with 8 μg/ml polybrene followed by puromycin selection (2 μm/ml) for 2 days in appropriate media. For overexpression, we used Gateway cloning (Life Technologies) to insert the GDF6 ORF (GE life sciences) or SMAD1DVD ORF (provided by Takenobu Katagiri) into the pLenti CMV Hygro DEST (w117-1) vector (provided by Paul Kaufman). Infection and monitoring was performed as described (C. J. Ceol et al., The histone methyltransferase SETDB 1 is recurrently amplified in melanoma and accelerates its onset. (Nature 471, 513-517 (2011)), except that selection was done with 300 ug/ml hygromycin for 10 days.
Protein extracts were prepared as previously described (S. D. Epstein L B, Hunte-McDonough B, harris C A, Cytokines: A pratical approach (Balkwill F R., ed). 81-93 (1991)). Extracts were separated on 12% SDS-PAGE gels. Blots were probed with primary antibodies (GDF6 (Sigma PRS4691; 1:1000), phospho-SMAD1/5/8 (Cell Signaling 13820; 1:1000), SMAD1 (Cell Signaling 9743; 1:500), Total SMAD1/5/8 (Santa Cruz sc-6031-R; 1:1000), FLAG (Sigma F3165, 1:2000), GAPDH (Abcam 8245; 1:2000)) overnight at 4° C., washed five times in TBS plus 0.1% Tween (TBST) and then incubated with the appropriate HRP-conjugated secondary antibody (Jackson Labs) for 1 hour at room temperature. Membranes were washed five times in TBST and visualized on autoradiography film after incubating with ECL reagent (Supersignal West Pico or Supersignal West Femto; Thermo Scientific).

MeWo melanoma cells = assay: Rescue of GDF6-knockdown melanoma cells by recombinant GDF6 in culture media; assay type: cell-based, human; settings: cells treated with shRNAs targeting GDF6
Text: To determine if secreted GDF6 can facilitate the growth of melanoma cells, we knocked down GDF6 using shRNAs and then treated these knockdown cells with recombinant GDF6 protein (FIG. 10).

Molecule	colonies in clonogenic growth assay after shRNA treatment (A375 melanoma cells [1])	colonies in clonogenic growth assay, cells expressing SMAD1 phosphomimic (SMAD1DVD) (A375 melanoma cells [1])	colonies in clonogenic growth assay, empty vector-transfected cells (A375 melanoma cells [1])	tumor formation (tumor volume) of shRNA-treated cells xenotransplanted into mice (A375 melanoma cells [2])	xenograft tumor formation, SMAD1 phosphomimic cells (A375 melanoma cells [2])	xenograft tumor formation, empty vector-transfected cells (A375 melanoma cells [2])	GDF6 protein expression after shRNA treatment (GDF6)	apoptosis (Annexin5 staining, Caspase 3/7 cleavage) (A375 melanoma cells [3])	SMAD1 protein expression after shRNA treatment (SMAD1)	SMAD1 protein expression after shRNA treatment (SMAD1; listed as shSMAD1#1)	SMAD1 protein expression after shRNA treatment (SMAD1; listed as shSMAD1#2)	proliferation/survival of GDF6-knockdown melanoma cells with recombinant GDF6 added to media (MeWo melanoma cells)	proliferation/survival of GDF6-knockdown melanoma cells with recombinant GDF6 added to media (MeWo melanoma cells; listed as recombinant GDF6)
shGDF6#1: shRNA targeting GDF6 (SEQ ID NO:1); GDF6.1 TRCN0000141818 targets SEQ ID NO:10 (GCCAAGTGTTACATTGAGCTT; the letters are possibly those of the target site; listed as Homo sapiens)	far fewer colonies	partially restored	few colonies formed	tumors intermediate between the control-treated (shEGFP) cells and the shGDF6#2-treated cells; also recorded: tumor volumes in xenografts decrease with the degree of GDF6 knockdown	tumor formation accelerated after day 15	only small tumors formed	partially inhibited GDF6 protein expression; also recorded: knockdown of GDF6 protein; also recorded: diminishes expression of GDF6 protein	elevated apoptosis relative to control cells	–	–	–	–	–
shGDF6#2: shRNA targeting GDF6 (SEQ ID NO:2); GDF6.2 TRCN0000140097 targets SEQ ID NO:11 (GTGTCCATGCTCTCAGACAAA; the letters are possibly those of the target site; listed as Homo sapiens)	far fewer colonies	partially restored	few colonies formed	very little tumor formation; also recorded: formed tumors more slowly than control cells; also recorded: tumor volumes in xenografts decrease with the degree of GDF6 knockdown	tumor formation accelerated after day 15	only small tumors formed	more effective than shGDF6#1; also recorded: knockdown of GDF6 protein; also recorded: diminishes expression of GDF6 protein	elevated apoptosis relative to control cells	–	–	–	–	–
shSMAD1-1: shRNA targeting SMAD1 (SEQ ID NO:4); SMAD1.1 TRCN0000021781 targets SEQ ID NO:12 (CGGTTGCTTATGAGGAACCAA; the letters are possibly those of the target site; listed as Homo sapiens)	far fewer colonies	–	–	formed only very small tumors; also recorded: tumor volumes in xenografts decrease	–	–	–	elevated apoptosis relative to control cells	knockdown of SMAD1 protein	significantly decreased; also recorded: decreases expression of SMAD1 protein	–	–	–
shSMAD1-2: shRNA targeting SMAD1 (SEQ ID NO:5); SMAD1.2 TRCN0000021782 targets SEQ ID NO:13 (GCCGATGGACACAAACATGAT; the letters are possibly those of the target site; listed as Homo sapiens)	far fewer colonies	–	–	–	–	–	–	elevated apoptosis relative to control cells	knockdown of SMAD1 protein	–	significantly decreased; also recorded: decreases expression of SMAD1 protein	–	–
B1	–	–	–	–	–	–	–	–	–	–	–	rescued the melanoma cells from undergoing GDF6 shRNA-induced apoptosis; also recorded: proliferation of GDF6-knockdown cells was restored	able to sustain their proliferation

Reference: US20160279207A1, “TARGETING GDF6 AND BMP SIGNALING FOR ANTI-MELANOMA THERAPY” (University of Massachusetts, priority 2015, published 2016)
